According to patent US8178704B2, “Inositol-phosphate derivatives and method of detecting inositol-1-phosphate” (CIS Bio International, priority 2004, dated 2012):
Entries after “also recorded” stand apart in the source; their conditions may differ.

How the values were obtained:
anti-IP1 antibodies = experiment: Specificity of the anti-IP1 antibodies evaluated by competition ELISA; format: binding, mouse; settings: competition with plate-bound IP1-biotin; competitors 1 nM to 100 μM (myo-inositol 10 nM to 1 mM)
Procedure: NUNC 96-well microtiter plates coated with streptavidin (13 pmol/well) are used. 100 μl of IP1-biotin conjugate prepared according to Example 9 at a concentration of 0.25 μg/ml are distributed and the mixture is incubated for 2 h 30 min at room temperature with stirring. The mixture is washed three times with water containing 0.1% Tween20. 50 μl of solutions of competitors are added so as to prepare the following final concentration ranges: myo-inositol (10 nM at 1 mM), IP1 Sigma (1 nM to 100 μM), IP2 (1 nM to 100 μM), IP3 (1 nM to 100 μM), PiP2 (1 nM to 100 μM) as well as 50 μl of culture supernatants secreting anti-IP1 antibodies. The mixture is incubated for 16 h at 4° C. and then washed three times with water containing 0.1% Tween20. 100 μl of conjugate anti-IgG (mouse)-peroxidase (Sigma # A 0168) diluted 1/60 000 in PBS 0.3% BSA are added. The mixture is incubated for 1 h at room temperature with stirring and then three washes are performed with 10 PBS 0.1% Tween20. 100 μl of TMB substrate (Sigma # T 8665) are distributed and the mixture is incubated for 30 min at room temperature with stirring and then 100 μl of stop reagent (Sigma # S5814) are distributed and the optical densities are measured at 450 nm.
The optical density at 450 nm is plotted against the logarithm of the concentration of compound whose competition it is desired to test. For all the compounds tested in competition, the maximum optical density OD450˜1.5 is observed at the lowest concentrations (1 nM).

[1] = tested on: anti-IP1 antibody labeled with europium cryptate; experiment: HTRF test, specificity of the anti-IP1 antibodies (competition with IP1-CY5); format: binding; settings: competition with IP1-CY5 conjugate; FIG. 12
Procedure: All the solutions are prepared in 100 mM HEPES buffer pH 7 containing 0.1% BSA and 0.4 M KF.NB. 50 μl of solution of competitors are distributed into the wells of a black bottom microtiter plate so as to obtain the following final concentrations: myo-inositol (10 nM to 1 mM), IP1 Sigma (1 nM to 1 mM), IP2 (1 nM to 100 μM), IP3 (1 nM to 100 μM), PiP2 (1 nM to 100 μM). 50 μl of a 10 nM solution of IP1-CY5 conjugate of Example 10, 50 μl of a solution containing 1.5 nM of an anti-IP1 antibody labeled beforehand with europium cryptate are then distributed in the order indicated. Two wells are also distributed in which the 50 μl of competitors are replaced with 50 μl of buffer so as to constitute blanks (negative controls). The mixture is incubated for 2 h at 4° C. and a time-resolved fluorescence measurement is performed (td=50 μs, tg=400 μs) at 620 nm and 665 nm on a Rubystar® apparatus (BMG Labtech). The ΔF values are calculated using the blank values as reference. The percentages of inhibition obtained with the various competitors are then calculated with the delta F values taking, as 100% value, the signal obtained in the presence of an excess of the IP1 competitor.

mGlu5 receptor = experiment: IP1 assay (TR-FRET) on HEK-293 cells expressing the mGlu5 receptor, effect of an inverse agonist; format: cell-based; settings: MPEP 5 nM to 100 μM, 1 hour; FIGS. 16A, 16B
Procedure: Incubation is performed for 1 hour at 37° C., 5% CO2.
When the constitutive activity of the mGluR5 receptor is blocked by the addition of MPEP, that will lead to a decrease in the production of intracellular IP1. […] This signal may be either the intensity ratio E665/E620 or the delta F.

mGlu1 receptor = target: T1, mGlu1 receptor (Homo sapiens, UniProt Q13255); experiment: IP1 assay (TR-FRET) on HEK-293 cells transiently expressing the mGlu1 receptor, effect of a positive allosteric modulator; format: cell-based; settings: Ro 01-6128 100 nM to 3 mM, 30 min; FIGS. 15A, 15B
T1 construct: expressed in transfected cells; host or cells: HEK-293 cells, transient, electroporation
T1 sequence (Q13255 19-1194): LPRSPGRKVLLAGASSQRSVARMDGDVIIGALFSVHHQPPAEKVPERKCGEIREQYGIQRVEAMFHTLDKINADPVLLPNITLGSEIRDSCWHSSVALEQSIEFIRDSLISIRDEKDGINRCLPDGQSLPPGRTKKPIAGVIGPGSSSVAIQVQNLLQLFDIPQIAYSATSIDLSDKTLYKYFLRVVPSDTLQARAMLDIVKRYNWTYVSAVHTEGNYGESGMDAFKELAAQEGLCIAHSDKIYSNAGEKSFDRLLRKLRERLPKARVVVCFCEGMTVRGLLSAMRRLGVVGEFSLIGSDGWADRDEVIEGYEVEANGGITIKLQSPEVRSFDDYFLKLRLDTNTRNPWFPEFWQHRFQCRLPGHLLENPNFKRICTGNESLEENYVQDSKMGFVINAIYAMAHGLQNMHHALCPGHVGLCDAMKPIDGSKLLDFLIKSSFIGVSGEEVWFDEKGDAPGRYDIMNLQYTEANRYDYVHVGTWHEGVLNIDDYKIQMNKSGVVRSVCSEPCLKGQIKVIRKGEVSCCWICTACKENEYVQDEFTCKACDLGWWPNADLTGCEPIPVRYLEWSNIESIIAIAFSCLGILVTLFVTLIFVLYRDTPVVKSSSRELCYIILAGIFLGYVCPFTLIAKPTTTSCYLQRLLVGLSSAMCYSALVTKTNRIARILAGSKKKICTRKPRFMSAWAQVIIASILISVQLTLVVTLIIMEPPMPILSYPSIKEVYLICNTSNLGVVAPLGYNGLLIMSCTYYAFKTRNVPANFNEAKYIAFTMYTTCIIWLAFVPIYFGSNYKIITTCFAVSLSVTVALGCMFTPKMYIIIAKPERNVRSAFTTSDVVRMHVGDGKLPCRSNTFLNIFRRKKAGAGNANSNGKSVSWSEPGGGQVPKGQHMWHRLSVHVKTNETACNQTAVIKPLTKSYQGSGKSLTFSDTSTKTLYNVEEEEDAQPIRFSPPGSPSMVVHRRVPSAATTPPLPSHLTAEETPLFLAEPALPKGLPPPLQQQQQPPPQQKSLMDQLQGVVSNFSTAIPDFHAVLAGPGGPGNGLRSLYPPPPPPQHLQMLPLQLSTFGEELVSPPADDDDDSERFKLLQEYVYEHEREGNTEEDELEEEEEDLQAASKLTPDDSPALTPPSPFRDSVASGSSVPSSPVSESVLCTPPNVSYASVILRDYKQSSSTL
Procedure: Incubation is performed for 3 h at 37° C., 5% CO2, saturated with moisture, before changing the medium for 100 μl of DMEM containing glutamax (glutamine not degradable to glutamate) and free of serum. Incubation is performed overnight at 37° C. in an incubator containing 5% CO2, saturated with moisture.
This signal may be either the intensity ratio E665/E620, or the delta F.

Compound | decrease in the signal (optical density at 450 nm) caused by the competitor (anti-IP1 antibodies) | other results
O=P(O)(O)OC1[C@H](O)[C@H](O)C(O)[C@H](O)[C@H]1O (stereo partly drawn) [IP1] | induces a reduction in the signal for concentrations below the micromolar range; also recorded: only the use of IP1 as competitor makes it possible to measure inhibition of the signal | inhibition of the signal by the competitor (HTRF, delta F) [1]: only the use of IP1 as competitor makes it possible to measure inhibition of the signal
Cc1cccc(C#Cc2ccccc2)n1 [MPEP, 2-methyl-6-(phenylethynyl)pyridine] | – | TR-FRET signal (E665/E620 ratio or delta F) as a function of inverse agonist concentration (mGlu5 receptor): the signal for the assay will increase as a function of the concentration of inverse agonist
CCOC(=O)NC(=O)C(c1ccccc1)c1ccccc1 [PAM] | – | TR-FRET signal (E665/E620 ratio or delta F) as a function of PAM concentration (mGlu1 receptor): the signal will decrease as a function of the PAM concentration
O[C@H]1[C@H](O)[C@@H](O)[C@H](O)[C@@H](O)[C@H]1O [myo-inositol] | does not cause a decrease in the signal even at concentrations of 1 mM | –
phosphatidylinositol 4,5-biphosphate [PIP2] | not recognized by the antibody | –
